Laboratory results: patent US9499550B2 (BRISTOL-MYERS SQUIBB COMPANY, priority 2012, dated 2016)

Columns and labels:
[1] = tested on: HCV genotype 1b (Con1) replicon in HUH-7 cells; assay: HCV replicon luciferase reporter assay, genotype 1b; assay type: cell-based; conditions: Hepatitis C virus, Huh-7, 72 h, HCV genotype 1b replicon luciferase, 3 days incubation, read-out: LE_1b (EC50, range)
Method in brief: (§1)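 Replicon inhibition for both genotypes was measured as Renilla luciferase signal (EnduRen, 7.5 μM final, 2 h) after 3-day, 37° C exposure of replicon-bearing HUH-7 cells in 4% FCS DMEM, 0.5% DMSO. The 1b construct carries S1179I; the 1a H77 construct carries P1496L and S2204I. Twenty-point, 3-fold dilutions were fitted four-parametrically for EC50, and CC50 was taken from multiplexed Cell Titer-Blue.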

[2] = tested on: HCV genotype 1a (H77 strain) replicon in HUH-7 cells; assay: HCV replicon luciferase reporter assay, genotype 1a; assay type: cell-based; conditions: Hepatitis C virus, Huh-7, 72 h, HCV genotype 1a replicon luciferase, 3 days incubation, read-out: LE_1a (EC50, range)
Method in brief: as §1

SMILES	EC50 [1]	EC50 [2]
CC(C)Oc1ccc2c(O[C@@H]3C[C@H]4C(=O)N[C@]5(C(=O)NS(=O)(=O)C6(C)CC6)C[C@H]5/C=C\CC[C@H](C)C[C@@H](C)[C@H](NC(=O)OC(C)(C)C(F)(F)F)C(=O)N4C3)nccc2c1 [Compound 5158, 1,1,1-trifluoro-2-methylpropan-2-yl((2R,6S,7R,9S,13aS,14aR,16aS,Z)-2-((6-isopropoxyisoquinolin-1-yl)oxy)-7,9-dimethyl-14a-(((1-methylcyclopropyl)sulfonyl)carbamoyl)-5,16-dioxo-1,2,3,5,6,7,8,9,10,11,13a,14,14a,15,16,16a-hexadecahydrocyclopropa[e]pyrrolo[1,2-a][1,4]diazacyclopentadecin-6-yl)carbamate]	< 5.46 nM	4.82 to 103 nM
CC(C)Oc1ccc2c(O[C@@H]3C[C@H]4C(=O)N[C@]5(C(=O)NS(=O)(=O)C6(C)CC6)C[C@H]5/C=C\CC[C@@H](C)C[C@@H](C)[C@H](NC(=O)OC(C)(C)C(F)(F)F)C(=O)N4C3)nccc2c1 [Compound 5159, 1,1,1-trifluoro-2-methylpropan-2-yl((2R,6S,7R,9R,13aS,14aR,16aS,Z)-2-((6-isopropoxyisoquinolin-1-yl)oxy)-7,9-dimethyl-14a-(((1-methylcyclopropyl)sulfonyl)carbamoyl)-5,16-dioxo-1,2,3,5,6,7,8,9,10,11,13a,14,14a,15,16,16a-hexadecahydrocyclopropa[e]pyrrolo[1,2-a][1,4]diazacyclopentadecin-6-yl)carbamate]	< 5.46 nM	< 5.46 nM
CC(C)Oc1ccc2c(O[C@@H]3C[C@H]4C(=O)N[C@]5(C(=O)NS(=O)(=O)C6(C)CC6)C[C@H]5/C=C\CC[C@H](C)C[C@@H](C)[C@H](NC(=O)O[C@H](C)C(F)(F)F)C(=O)N4C3)nccc2c1 [Compound 5160, (R)-1,1,1-trifluoropropan-2-yl ((2R,6S,7R,9S,13aS,14aR,16aS,Z)-2-((6-isopropoxyisoquinolin-1-yl)oxy)-7,9-dimethyl-14a-(((1-methylcyclopropyl)sulfonyl)carbamoyl)-5,16-dioxo-1,2,3,5,6,7,8,9,10,11,13a,14,14a,15,16,16a-hexadecahydrocyclopropa[e]pyrrolo[1,2-a][1,4]diazacyclopentadecin-6-yl)carbamate]	< 5.46 nM	4.82 to 103 nM
CC(C)Oc1ccc2c(O[C@@H]3C[C@H]4C(=O)N[C@]5(C(=O)NS(=O)(=O)C6(C)CC6)C[C@H]5/C=C\CC[C@@H](C)C[C@@H](C)[C@H](NC(=O)O[C@H](C)C(F)(F)F)C(=O)N4C3)nccc2c1 [Compound 5161, (R)-1,1,1-trifluoropropan-2-yl ((2R,6S,7R,9R,13aS,14aR,16aS,Z)-2-((6-isopropoxyisoquinolin-1-yl)oxy)-7,9-dimethyl-14a-(((1-methylcyclopropyl)sulfonyl)carbamoyl)-5,16-dioxo-1,2,3,5,6,7,8,9,10,11,13a,14,14a,15,16,16a-hexadecahydrocyclopropa[e]pyrrolo[1,2-a][1,4]diazacyclopentadecin-6-yl)carbamate]	< 5.46 nM	< 5.46 nM
CC(C)Oc1ccc2c(O[C@@H]3C[C@H]4C(=O)N[C@]5(C(=O)NS(=O)(=O)C6(C)CC6)C[C@H]5/C=C\CC[C@H](C)C[C@@H](C)[C@H](NC(=O)O[C@@H]5C[C@@H]6C[C@@H]6C5)C(=O)N4C3)nccc2c1 [Compound 5162, (1R,3r,5S)-bicyclo[3.1.0]hexan-3-yl((2R,6S,7R,9S,13aS,14aR,16aS,Z)-2-((6-isopropoxyisoquinolin-1-yl)oxy)-7,9-dimethyl-14a-(((1-methylcyclopropyl)sulfonyl)carbamoyl)-5,16-dioxo-1,2,3,5,6,7,8,9,10,11,13a,14,14a,15,16,16a-hexadecahydrocyclopropa[e]pyrrolo[1,2-a][1,4]diazacyclopentadecin-6-yl)carbamate]	< 5.46 nM	4.82 to 103 nM
CC(C)Oc1ccc2c(O[C@@H]3C[C@H]4C(=O)N[C@]5(C(=O)NS(=O)(=O)C6(C)CC6)C[C@H]5/C=C\CC[C@@H](C)C[C@@H](C)[C@H](NC(=O)O[C@@H]5C[C@@H]6C[C@@H]6C5)C(=O)N4C3)nccc2c1 [Compound 5163, (1R,3r,5S)-bicyclo[3.1.0]hexan-3-yl((2R,6S,7R,9R,13aS,14aR,16aS,Z)-2-((6-isopropoxyisoquinolin-1-yl)oxy)-7,9-dimethyl-14a-(((1-methylcyclopropyl)sulfonyl)carbamoyl)-5,16-dioxo-1,2,3,5,6,7,8,9,10,11,13a,14,14a,15,16,16a-hexadecahydrocyclopropa[e]pyrrolo[1,2-a][1,4]diazacyclopentadecin-6-yl)carbamate]	< 5.46 nM	< 5.46 nM
[2H]C([2H])([2H])C(C)(OC(=O)N[C@@H]1C(=O)N2C[C@H](Oc3nccc4cc(OC(C)C)ccc34)C[C@H]2C(=O)N[C@]2(C(=O)NS(=O)(=O)C3(C)CC3)C[C@H]2/C=C\CC[C@H](C)C[C@H]1C)C([2H])([2H])[2H] [Compound 5164]	4.82 to 103 nM	4.82 to 103 nM
[2H]C([2H])([2H])C(C)(OC(=O)N[C@@H]1C(=O)N2C[C@H](Oc3nccc4cc(OC(C)C)ccc34)C[C@H]2C(=O)N[C@]2(C(=O)NS(=O)(=O)C3(C)CC3)C[C@H]2/C=C\CC[C@@H](C)C[C@H]1C)C([2H])([2H])[2H] [Compound 5165]	< 5.46 nM	< 5.46 nM
[2H]C([2H])([2H])C(OC(=O)N[C@@H]1C(=O)N2C[C@H](Oc3nccc4cc(OC(C)C)ccc34)C[C@H]2C(=O)N[C@]2(C(=O)NS(=O)(=O)C3(C)CC3)C[C@H]2/C=C\CC[C@H](C)C[C@H]1C)(C([2H])([2H])[2H])C([2H])([2H])[2H] [Compound 5166, 1,1,1,3,3,3-hexadeutero-2-(trideuteromethyl)propan-2-yl((2R,6S,7R,9S,13aS,14aR,16aS,Z)-2-((6-isopropoxyisoquinolin-1-yl)oxy)-7,9-dimethyl-14a-(((1-methylcyclopropyl)sulfonyl)carbamoyl)-5,16-dioxo-1,2,3,5,6,7,8,9,10,11,13a,14,14a,15,16,16a-hexadecahydrocyclopropa[e]pyrrolo[1,2-a][1,4]diazacyclopentadecin-6-yl)carbamate]	4.82 to 103 nM	4.82 to 103 nM
[2H]C([2H])([2H])C(OC(=O)N[C@@H]1C(=O)N2C[C@H](Oc3nccc4cc(OC(C)C)ccc34)C[C@H]2C(=O)N[C@]2(C(=O)NS(=O)(=O)C3(C)CC3)C[C@H]2/C=C\CC[C@@H](C)C[C@H]1C)(C([2H])([2H])[2H])C([2H])([2H])[2H] [Compound 5167, 1,1,1,3,3,3-hexadeutero-2-(trideuteromethyl)propan-2-yl((2R,6S,7R,9R,13aS,14aR,16aS,Z)-2-((6-isopropoxyisoquinolin-1-yl)oxy)-7,9-dimethyl-14a-(((1-methylcyclopropyl)sulfonyl)carbamoyl)-5,16-dioxo-1,2,3,5,6,7,8,9,10,11,13a,14,14a,15,16,16a-hexadecahydrocyclopropa[e]pyrrolo[1,2-a][1,4]diazacyclopentadecin-6-yl)carbamate]	< 5.46 nM	< 5.46 nM
CCCOc1ccc2c(O[C@@H]3C[C@H]4C(=O)N[C@]5(C(=O)NS(=O)(=O)C6CC6)C[C@H]5/C=C\CC[C@H](C)C[C@@H](C)[C@H](NC(=O)OC(C)(C)C)C(=O)N4C3)nccc2c1 [Compound 5168, tert-butyl ((2R,6S,7R,9S,13aS,14aR,16aS,Z)-14a-((cyclopropylsulfonyl)carbamoyl)-7,9-dimethyl-5,16-dioxo-2-((6-propoxyisoquinolin-1-yl)oxy)-1,2,3,5,6,7,8,9,10,11,13a,14,14a,15,16,16a-hexadecahydrocyclopropa[e]pyrrolo[1,2-a][1,4]diazacyclopentadecin-6-yl)carbamate]	< 5.46 nM	< 5.46 nM
CCCOc1ccc2c(O[C@@H]3C[C@H]4C(=O)N[C@]5(C(=O)NS(=O)(=O)C6CC6)C[C@H]5/C=C\CC[C@@H](C)C[C@@H](C)[C@H](NC(=O)OC(C)(C)C)C(=O)N4C3)nccc2c1 [Compound 5169, tert-butyl ((2R,6S,7R,9R,13aS,14aR,16aS,Z)-14a-((cyclopropylsulfonyl)carbamoyl)-7,9-dimethyl-5,16-dioxo-2-((6-propoxyisoquinolin-1-yl)oxy)-1,2,3,5,6,7,8,9,10,11,13a,14,14a,15,16,16a-hexadecahydrocyclopropa[e]pyrrolo[1,2-a][1,4]diazacyclopentadecin-6-yl)carbamate]	< 5.46 nM	< 5.46 nM
CCCOc1ccc2c(O[C@@H]3C[C@H]4C(=O)N[C@]5(C(=O)NS(=O)(=O)C6CC6)C[C@H]5/C=C\CC[C@H](C)C[C@@H](C)[C@H](NC(=O)OC(C)(C)C(F)(F)F)C(=O)N4C3)nccc2c1 [Compound 5170, 1,1,1-trifluoro-2-methylpropan-2-yl((2R,6S,7R,9S,13aS,14aR,16aS,Z)-14a-((cyclopropylsulfonyl)carbamoyl)-7,9-dimethyl-5,16-dioxo-2-((6-propoxyisoquinolin-1-yl)oxy)-1,2,3,5,6,7,8,9,10,11,13a,14,14a,15,16,16a-hexadecahydrocyclopropa[e]pyrrolo[1,2-a][1,4]diazacyclopentadecin-6-yl)carbamate]	< 5.46 nM	4.82 to 103 nM
CCCOc1ccc2c(O[C@@H]3C[C@H]4C(=O)N[C@]5(C(=O)NS(=O)(=O)C6CC6)C[C@H]5/C=C\CC[C@@H](C)C[C@@H](C)[C@H](NC(=O)OC(C)(C)C(F)(F)F)C(=O)N4C3)nccc2c1 [Compound 5171, 1,1,1-trifluoro-2-methylpropan-2-yl((2R,6S,7R,9R,13aS,14aR,16aS,Z)-14a-((cyclopropylsulfonyl)carbamoyl)-7,9-dimethyl-5,16-dioxo-2-((6-propoxyisoquinolin-1-yl)oxy)-1,2,3,5,6,7,8,9,10,11,13a,14,14a,15,16,16a-hexadecahydrocyclopropa[e]pyrrolo[1,2-a][1,4]diazacyclopentadecin-6-yl)carbamate]	< 5.46 nM	< 5.46 nM
